Among the data in ChEMBL document CHEMBL1158119, “Hyrtiazepine, an azepino-indole-type alkaloid from the Red Sea marine sponge Hyrtios erectus” (J Nat Prod, 2006) are IC50 values, retold here.

The target of this test is T1, Phospholipase A2 alpha (Crotalus adamanteus, UniProt P00623).
T1 sequence (P00623 whole entry): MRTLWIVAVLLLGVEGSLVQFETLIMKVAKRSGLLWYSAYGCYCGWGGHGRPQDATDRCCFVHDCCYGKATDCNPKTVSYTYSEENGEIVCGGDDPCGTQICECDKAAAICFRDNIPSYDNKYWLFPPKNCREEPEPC
Kind of test: Inhibition of Crotalus adamanteus venom phospholipase A2 by fluorometric assay.

The structures appear in SMILES notation.

What is called IC50 is the concentration needed to halve the response being measured. A higher IC50 goes with lower potency. In the case of `O=C(c1c[nH]c2ccc(O)cc12)c1nccc2c1[nH]c1ccc(O)cc12` [HYRTIOSULAWESINE], the IC50 was found to be 14 µM. Then `CC1=C(CC/C(C)=C/CCC2=CC[C@H](C3=CC(=O)O[C@H]3O)O[C@H]2O)C(C)(C)CCC1` [MANOALIDE], with 0.4 µM.
